These results are taken from patent US20180264191A1, “SYSTEMS AND METHODS FOR NEURAL DRUG DELIVERY AND MODULATION OF BRAIN ACTIVITY” (priority 2017, published 2018).

In one test the test system is hippocampal (CA1) unit. Kind of test: Acute tetrode recording with local micro-injection through MiNDS in anesthetized rats. To be noted: anesthetized rat. It is filed as in vivo. How it is done: Acute electrophysiological recordings and micro-injections were performed in anesthetized rats to test the system with a tetrode W electrode. […] The channel impedance values of the tetrode electrode (T-1, T-2, T-3, T-4) were 430, 370, 440, and 370 kΩ. […] The mean of the action potentials recorded from this unit was stable during the experiment (i.e. before first saline infusion, before first and second muscimol infusions), confirming that the unit was present during the trial, as shown in FIGS. 18A-C. […] Peak 1 and Peak 2 are the maximal value of waveforms measured by T-1, T-2, respectively. The projections of the peak values calculated from each recorded action potential are shown in FIG. 18C, reflecting the cluster-cutting used to isolate signals coming from different neurons. […]
The dura was removed and the device was lowered into the brain to a depth of 2.5 mm and a location with unit activity was identified. The local neural signals were recorded with Open Ephys GUI software. Prior to drug infusion, the local signals were recorded for 30 mins to ensure stable spikes were located. After the baseline recording, 150 nl of saline were infused into the site at a flow rate of 100 nl/min and the activity was recorded for another 30 mins. […] Recording was recorded for another 30 mins post muscimol infusion. […]

A further test has as its system substantia nigra (SN). Briefly: Behavioral study: rotations after unilateral infusion into the substantia nigra through S-MiNDS with iPrecio pumps. In kind it is in vivo. To be noted: rat. How it is done:
The capability of interfacing the system with deep brain structures to remotely control behavior was tested. In experiments in rats, the S-MiNDS was implanted in the SN and was connected to two implanted iPrecio pumps, containing either saline or muscimol. Unilateral delivery of muscimol to the SN is known to evoke preferential ipsilateral rotation, reflecting a hemiparkinsonian state. […] These studies were performed multiple times on each of multiple animals. This illustrates the ability of system to repeatedly and reproducibly deliver small volumes of drug to effect a reversible behavioral change.
A similar protocol as described above was used to implant the MiNDS with the iPrecio pumps. Rats were anesthetized, and their heads were shaved and disinfected. A longer incision was made to accommodate the insertion of the pumps. As aforementioned, the MiNDS burr hole was made 5 mm posterior to the bregma and 2.5 mm lateral to the midline, and a support screw burr hole was made 3 mm posterior and 2 mm lateral to the bregma, on the opposite side. The screw was implanted, such that 1 mm protruded beneath the skull. A subcutaneous cavity for the pump was made by blunt dissection, and the pump was inserted through the incision. The MiNDS probe was implanted and cemented to the skull using C&B Metabond adhesive (Parkell Inc., Edgewood N.Y.) and Orthojet dental cement (Lange Dental, Wheeling, Ill. USA), and the incision was closed using 5-0 monofilament non-resorbable suture and 3M tissue glue. Animals were closely observed during the recovery period and given analgesics and wet food. By 1 week post-surgery, in all cases animals were ambulatory and otherwise healthy. Animals implanted with pumps were used for the behavioral studies described below. […]
A rat was implanted with the MiNDS and two pumps pre-loaded and flushed with either saline or muscimol, as described above. The animal was placed within the dish and recorded over the course of 5 hrs. […]
Videos were imported into Ethovision, where they were analyzed for ipsilateral and contralateral rotations over time. […]

Test [1] has as its system local neuronal activity in the neocortex. Kind of test: Unit firing and local field potential recording with serial infusions through L-MiNDS in awake head-fixed monkey. It is filed as in vivo, rhesus macaque (Macaca mulatta). The following applies: for rate of detected spike activity (local unit firing): muscimol 2 mg/ml in aCSF, 500 nl at 100 nl/min for 5 mins. How it is done: The functionality of the system (specifically, the L-MiNDS) was confirmed in a large, awake behaving animal model, the rhesus macaque (macacca mulatta) monkey. The L-MiNDS was used to modulate and monitor local neuronal activity in the neocortex of a head-fixed monkey through serial infusions of aCSF and muscimol, which respectively preserve and inhibit baseline unit firing activity, as depicted in FIG. 21A. The 1st vertical line on left indicates the start of aCSF infusion (at 20 mins) and the 2nd vertical line denotes the muscimol infusion (at 63.7 mins). The impedance measurement of the W-electrode was 1.5 MΩ in brain and at pre-implantation in saline was 2 MΩ. Modulation of neuronal firing activity was monitored by recording signals at the MiNDS electrode adjoining the infusion ports. […] Then, aCSF was infused for 5 mins 20 s at an infusion rate of 100 nl/min. This control infusion had minimal effect on the local firing rate and unit waveform during and after the infusion. Muscimol was then infused at the same location for 5 mins at infusion rate of 100 nl/min. […] Vertical and horizontal bars denote 10 μV and 2 ms, respectively.
A second experiment was conducted targeting deeper layers of the neocortical region (i.e., dorsal bank of the cingulate cortex) to determine if recovery of the reduced neural activity through an additional infusion of aCSF could be induced at this adjoining site. This larger infusion of aCSF was indeed effective in reversing the inhibitory effect of muscimol, as shown by the observation of an increasing frequency of spikes with waveforms closely resembling those found during the pre-muscimol period, as depicted in FIGS. 23A-23C. In particular, the 1st vertical line on left in FIG. 23A denotes the start of aCSF infusion (at 20 mins), the second vertical line represents the start of muscimol infusion (at 43 mins), and the third vertical line denotes the start of aCSF infusion (at 92 mins). In FIG. 23Cm vertical and horizontal bars denote 10 μV and 2 ms, respectively. […] Compared to prior work, this is the first system that allows serial infusion of multiple distinct solutions to be delivered in a focal, independent manner in a NHP. The system's integrated electrode can also be used to record local field potentials (LFPs), as shown in FIGS. 24A and 24B, which may be important for clinical applications that may require chronic recording from a fixed brain location. For example, pathological beta-band LFP in Parkinson's disease and/or epileptic discharges in epilepsy could be recorded from the chronically integrated electrode to track and treat dysfunction in future applications. In FIG. 24A, two curves for each period represent 95% confidence intervals. Each pair of curves correspond to signals averaged over 10 mins periods as labeled in the legend at the top right of each plot. […] Alpha (5-11 Hz) and beta (11-30 Hz) band power fluctuate without correlation to the infusions. The prominent power at 60 Hz is due to coupling of power mains noise. […]
Solutions used for infusion through the MiNDS were aCSF (artificial cerebrospinal fluid, Tocris Biosciences) and muscimol (2 mg/ml in aCSF, Sigma-Aldrich). The MiNDS and guide cannula were sonicated in a detergent solution (Alconox, Inc.), rinsed with water, and then sonicated and soaked in 70% ethanol followed by water until they were ready for implantation. […]

[2] abbreviates: 1.67 μl of muscimol (0.2 mg/ml) into SN, 180° turns.

Regarding `NCc1cc(=O)[nH]o1` [muscimol], in the test on hippocampal (CA1) unit (local infusion via iPrecio pump, first muscimol infusion at 60 mins), the “firing rate of hippocampal (CA1) unit after first muscimol injection” value was “a slow decrease of the firing rate occurred”. The “rate of detected spike activity of hippocampal (CA1) unit after second muscimol injection” value with hippocampal (CA1) unit (second muscimol infusion at 90 mins) is “abolished the rate of detected spike activity”. Also, in the test with substantia nigra (SN) (setting [2]), the counter-clockwise rotations result is recorded as “remained the same” and the “increase in the number of clockwise rotations” value is recorded as 52 fold. Besides, the “parkinsonian behavior (preferential ipsilateral rotation)” value in the test on substantia nigra (SN) (remotely controlled infusion of 1.67 μl of muscimol (0.2 mg/ml) into SN) was “reliably induced”. Moreover, in test [1] (after muscimol infusion), the “LFP power for alpha frequencies” value was “persists”; the “LFP power for broadband, beta, and gamma frequency ranges” value is on record as “decreases significantly”. The “LFP broadband power from 30-100 Hz” value in test [1] (after muscimol infusion, 10 mins intervals) is given as “decreases immediately following muscimol infusion”. The “rate of detected spike activity (local unit firing)” value in test [1] is on record as “immediately suspended activity”. In addition, the “rate of detected spike activity (local unit firing)” value in test [1] (listed as Muscimol) is reported as “immediately decreased the rate of detected spike activity”.
